Data published in patent publication US11401516B2, “Channel modulators” (AUCKLAND UNISERVICES LIMITED, priority 2014, dated 2022).

Experiments:
Connexin43 hemichannel = molecular target: T1, Connexin43 hemichannel (Homo sapiens, UniProt P17302); test: Whole-cell voltage clamp, Connexin43 transfected HeLa cells; assay type: cell-based; settings: voltage steps; peptide5 100 μM; carbenoxolone and LaCl3 concentration not stated
T1 construct: expressed in transfected cells; host or cells: HeLa (connexin-deficient parent), Cx43IRESeGFP, puromycin selection
T1 sequence (P17302 2-382 limits assumed): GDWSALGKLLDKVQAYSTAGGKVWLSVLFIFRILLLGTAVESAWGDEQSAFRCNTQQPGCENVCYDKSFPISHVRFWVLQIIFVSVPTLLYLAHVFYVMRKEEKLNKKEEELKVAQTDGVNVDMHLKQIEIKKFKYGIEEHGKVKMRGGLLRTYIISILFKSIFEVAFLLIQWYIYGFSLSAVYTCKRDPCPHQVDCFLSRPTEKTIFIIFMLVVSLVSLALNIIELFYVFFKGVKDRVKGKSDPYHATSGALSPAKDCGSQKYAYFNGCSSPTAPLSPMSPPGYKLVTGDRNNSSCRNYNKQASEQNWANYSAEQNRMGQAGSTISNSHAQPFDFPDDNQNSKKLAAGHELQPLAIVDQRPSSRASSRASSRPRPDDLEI
Procedure: Whole-cell voltage clamp studies were conducted on connexin deficient HeLa cells, Connexin43 transfected HeLa cells and isolated human cerebral microvascular endothelial cells (hCMVEC).
HeLa cells were seeded at 0.045×10^6 cells/mL on 18 mm rat collagen I coated coverslips 16-24 hours before each experiment. Cx43IRESeGFP HeLa cells were cultured overnight in DMEM supplemented with 10% FCS and 1 μg/mL Puromycin at 37° C. at 95% O2 and 5% CO2. Control Cx-deficient cells were maintained in DMEM supplmented with 10% FCS. Coverslips were transferred to a chamber continuously perfused with modified Krebs-Ringer solution containing (in mM): 140 NaCl, 5.4 KCl, 1 MgCl2, 10 mM Hepes and pH adjusted to 7.4 at room temperature. The internal pipette solution contained (in mM): 130 KCl, 10 sodium aspartate, 0.26 CaCl2, 2 EGTA, 5 tetraethylammonium-Cl, 1 MgCl, 3 MgATP, and 5 Hepes at pH 7.2; and was kept on ice. The solutions are described in Contreras J E, et al., Cell Communication and Adhesion (2003), 10:245-249. To resolve single currents in whole-cell configuration, cells with low capacitance (<10 pF) and high resistance pipettes ([…]) with a seal resistance of (>5 GOhm) were selected for recording and analysis.

HUVEC cells = test: Transfection uptake of FAM-labelled oligonucleotides (FACS); assay type: cell-based, Human; settings: 200 nM
Procedure: HUVEC cells (C-003-5C, Invitrogen, primary Human endothelial cells) were used to test the transfection of chemically modified backbones of the Connexin 43 antisense compounds. Cells were transfected with Oligofectamine® using the manufacturer's recommended protocol for 4 hr and 12 hr in serum-free media. The antisense concentration was 200 nM in buffer. The antisense compounds used had unmodified (O) or fully modified (PTO) backbones, where the modified backbone had all thiophosphoriate linkages between the nucleotides. The unmodified sequence SEQ1-O would have the sequence […] NO: 23). The modified sequence SEQ1-PTO would have the sequence of: [NT] NO: 23), wherein the subscript “s” indicates the thiophosphoriate linkage between the two nucleotides. […] All sequences for the transfection study were labelled with FAM for fluorescence labelling. The transfected cells were analyzed by FACS (fluorescent-activated cell sorting), and confocal microscopy.

Connexin 43 RNA = test: Connexin 43 knockdown by qPCR in HUVEC; assay type: cell-based, human; settings: for Avg % KD qPCR: HUVEC, phosphorothioate backbone ASN; for Absolute Difference from SEQ1 (relative knockdown): all-thiophosphoriate linkages in the entire backbone; for dose response of Cxn43 knockdown, qPCR: 200-600 nM
Procedure: Next, the knockdown efficiency of Connexin 43 in HUVEC cells was measured by qPCR for an oligonucleotide series with the same sequence but with a different number of PTO-modifications on the oligonucleotide backbone. The sequences tested were SEQ1 and SEQ4, with none, 2, or all phosphorthioate linkages in the backbone. For the sequences with two phosphorthioate linkages in the backbone, the phosphorthioate linkages were between the last nucleotide linkages at the terminus of each side of the sequence. The sequences are Gs[…]sT (SEQ ID NO: 23) and As[…]sC (SEQ ID NO: 5) for SEQ1-2PTO and SEQ4-2PTO, respectively. […]
(§1) Cells were grown in 6-well culture plates for 24 hr and reached 50-70% confluence prior to antisense oligonucleotide treatments using the transfection agent Oligofectamine®. Cells were harvested for qPCR and Western blotting analysis between 4 and 24 hr after transfection.
qPCR was performed to determine the efficacy of antisense oligonucleotide in knockdown of the target RNA. Briefly, total RNA was extracted from the cells after transfection. The isolated RNA was DNAse-treated and reverse-transcribed into cDNA. The cDNA subsequently underwent qPCR thermal cycling. The Ct values (the number of cycles required for the fluorescent intensity to cross the set threshold) obtained from the qPCR were converted into relative abundance of RNA. The RNA level of the target was normalised to selected reference genes and compared between antisense oligonucleotide versus vehicle treatments.
(§2) The cell screening experiments were performed using HUVEC cells (human umbilical vein endothelial cells; Invitrogen), with two biological replicates in each experiment. The identifiers of “CODA” are SEQ1, and “LP2” are SEQ4.

Connexin 43 = Connexin 43 knockdown by Western blot in HUVEC; assay type: cell-based, human; settings: phosphorothioate backbone ASN
Procedure: as §1
Western blotting was also performed to determine the efficacy of antisense oligonucleotide in knockdown of the target protein. Briefly, total proteins were extracted from the cells after transfection and the concentration was determined by performing bicinchoninic acid (BCA) assay. Subsequently, equal amounts of total protein were loaded for gel electrophoresis and blotted onto nitrocellulose membranes, which were then probed with a specific antibody against the target protein. Densitometry was used to quantify the band intensity of the target protein. Knockdown was quantified by comparing antisense oligonucleotide versus vehicle treatments.
as §2

[1] = cited from earlier work; for incidence of new geographic atrophy: treated monthly, average 23 injections over two years
[2] = Table 66, 4 hr post-transfection
[3] = Table 67, 4 hr post-transfection
[4] = unmodified sequences (no phosphorthioate linkages)

## [Cl][La]([Cl])[Cl] [LaCl3]
Connexin43 hemichannel
  Connexin43 hemichannel activity: virtually complete hemichannel block

## ACCCATGTTGCCTGGGCACC (chemistry not fully specified) [SEQ4-Q]
HUVEC cells; [2]
  % transfected, M2: 64%
  % transfected, M3: 34%
  % transfected, M4: 1%
  % transfected, Total: 99%
HUVEC cells; [3]
  % transfected, M2: 55%
  % transfected, M3: 41%
  % transfected, M4: 2%
  % transfected, Total: 99%

## AGGCTGTGCATGGGAGTTAG (chemistry not given here) [SEQ7/1233]
Connexin 43 RNA
  Avg % KD qPCR: 82%
  Absolute Difference from SEQ1 (relative knockdown): 17
Connexin 43
  Avg % KD WB: 75%

## ATATGATCTGCAGGACCCAG (chemistry not given here) [SEQ9/50506]
Connexin 43 RNA
  Avg % KD qPCR: 79%
  Absolute Difference from SEQ1 (relative knockdown): 14
Connexin 43
  Avg % KD WB: 73%

## AsCsCsCsAsTsGsTsTsGsCsCsTsGsGsGsCsAsCsC (ACCCATGTTGCCTGGGCACC; chemistry not fully specified) [SEQ4-PTO]
HUVEC cells; [2]
  % transfected, M2: 9%
  % transfected, M3: 44%
  % transfected, M4: 48%
  % transfected, Total: 100%
HUVEC cells; [3]
  % transfected, M2: 9%
  % transfected, M3: 44%
  % transfected, M4: 47%
  % transfected, Total: 99%

## Avastin: VEGF antagonist antibody
[1]
  incidence of new geographic atrophy: 19.5%

## CAGAAGCGCACATGAGAGAT (chemistry not given here) [SEQ8/47001]
Connexin 43 RNA
  Avg % KD qPCR: 81%
  Absolute Difference from SEQ1 (relative knockdown): 15
Connexin 43
  Avg % KD WB: 75%

## CCAGGCTGACTCAACCGCTG (chemistry not given here) [SEQ4/37501]
Connexin 43 RNA
  Avg % KD qPCR: 87%
  Absolute Difference from SEQ1 (relative knockdown): 22
Connexin 43 RNA; [4]
  dose response of Cxn43 knockdown, qPCR: exhibited a dose response
Connexin 43
  Avg % KD WB: 82%

## CGCTGGTCCACAATGGCTAG (chemistry not given here) [SEQ6/133705]
Connexin 43 RNA
  Avg % KD qPCR: 83%
  Absolute Difference from SEQ1 (relative knockdown): 18
Connexin 43 RNA; [4]
  dose response of Cxn43 knockdown, qPCR: exhibited a dose response
Connexin 43
  Avg % KD WB: 75%

## GAAGCGCACATGAGAGATTG (chemistry not given here) [SEQ11]
Connexin 43 RNA
  Absolute Difference from SEQ1 (relative knockdown): 20

## GCTGGCTCTGCTTGAAGGTC (chemistry not given here) [SEQ 5/133705]
Connexin 43 RNA
  Avg % KD qPCR: 84%
  Absolute Difference from SEQ1 (relative knockdown): 19
Connexin 43
  Avg % KD WB: 75%

## GTAATTGCGGCAAGAAGAATTGTTTCTGT (DNA, phosphodiester; FAM fluorescent label attached, position not given here) [SEQ1-O]
HUVEC cells; [2]
  % transfected, M2: 56%
  % transfected, M3: 42%
  % transfected, M4: 2%
  % transfected, Total: 99%
HUVEC cells; [3]
  % transfected, M2: 56%
  % transfected, M3: 40%
  % transfected, M4: 2%
  % transfected, Total: 98%

## GTAATTGCGGCAAGAAGAATTGTTTCTGTC (chemistry not given here) [SEQ1]
Connexin 43 RNA; unmodified sequences (no phosphorthioate linkages), 4 hr, all concentrations (200-600 nM)
  knockdown effect on Cxn43, qPCR: ≤ 10%

## GsTsAsAsTsTsGsCsGsGsCsAsAsGsAsAsGsAsAsTsTsGsTsTsTsCsTsGsT (GTAATTGCGGCAAGAAGAATTGTTTCTGT; chemistry not fully specified) [SEQ1-PTO]
HUVEC cells; [2]
  % transfected, M2: 26%
  % transfected, M3: 63%
  % transfected, M4: 11%
  % transfected, Total: 100%
HUVEC cells; [3]
  % transfected, M2: 15%
  % transfected, M3: 49%
  % transfected, M4: 35%
  % transfected, Total: 100%

## Lucentis: VEGF antagonist antibody
[1]; treated as needed
  new geographic atrophy: 16%
[1]
  incidence of new geographic atrophy: 29.4%

## TCTCCCCAGGCTGACTCAAC (chemistry not given here) [SEQ10/37503]
Connexin 43 RNA
  Avg % KD qPCR: 77%
  Absolute Difference from SEQ1 (relative knockdown): 12
Connexin 43
  Avg % KD WB: 75%
